In the supplement of paper PMC4862054:

Legend:
Test in all cases: normalised response (% of control), CellTiter-Glo; higher = more viable cells (100 = DMSO, 0 = benzethonium chloride kill control)
Settings in all cases: incubation time: 72 h
[1] = tested on: CAL-148
How it was run: (§1)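 CellTox Green fluorescence (485/520 nm) and, after 10 min at room temperature, CellTiter-Glo luminescence were read from breast cancer cell lines incubated 72 h in 384-well plates. Cells were seeded as 20 µl suspension onto compound at 5 concentrations in 10-fold steps over a 10,000-fold range chosen per compound. Each plate was normalised to 0.1 % DMSO (100) and a positive kill control (0). Values are normalised signals, one per concentration.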

[2] = tested on: CAL-120
How it was run: as §1

[3] = tested on: HCC1143
How it was run: as §1

[4] = tested on: HCC1599
How it was run: as §1

[5] = tested on: MCF-10A
How it was run: as §1

[6] = tested on: BT-549
How it was run: as §1

[7] = tested on: CAL-51
How it was run: as §1

[8] = tested on: BT-474
How it was run: as §1

[9] = tested on: MDA-MB-468
How it was run: as §1

[10] = tested on: MDA-MB-231
How it was run: as §1

[11] = tested on: HDQ-P1
How it was run: as §1

[12] = tested on: MDA-MB-436
How it was run: as §1

[13] = tested on: MFM-223
How it was run: as §1

[14] = tested on: CAL-85-1
How it was run: as §1

[15] = tested on: HCC1937
How it was run: as §1

[16] = tested on: DU-4475
How it was run: as §1

[17] = tested on: Hs578T
How it was run: as §1

[18] = tested on: MDA-MB-453
How it was run: as §1

Row | SMILES | normalised response [1] [%] | normalised response [2] [%] | normalised response [3] [%] | normalised response [4] [%] | normalised response [5] [%] | normalised response [6] [%] | normalised response [7] [%] | normalised response [8] [%] | normalised response [9] [%] | normalised response [10] [%] | normalised response [11] [%] | normalised response [12] [%] | normalised response [13] [%] | normalised response [14] [%] | normalised response [15] [%] | normalised response [16] [%] | normalised response [17] [%] | normalised response [18] [%]
1 | CCc1cncnc1N1CCN(Cc2nc3ccc(C(F)(F)F)cc3[nH]2)CC1 (10 nM) | 115 | 101 | 111 | 98.7 | 113 | 93.2 | 111 | 108 | 101 | 108 | 98.8 | 109 | 103 | 99.1 | 98.1 | 104 | 107 | 110
2 | O=C(O)C1(C(=O)O)CCC1.[NH2-].[NH2-].[Pt+2] [Carboplatin] (10 nM) | 105 | 99.3 | 104 | 99.2 | 103 | 102 | 57.9 | 103 | 96.8 | 97 | 96.9 | 95.4 | 98.4 | 99.5 | 96.6 | 95.9 | 101 | 99.7
3 | Cc1ccc(-c2cc(C(F)(F)F)nn2-c2ccc(S(N)(=O)=O)cc2)cc1 [Celecoxib] (10 nM) | 102 | 101 | 104 | 105 | 105 | 102 | 106 | 27.3 | 100 | 100 | 98.1 | 105 | 102 | 103 | 98.3 | 101 | 107 | 115
4 | Nc1ncn([C@H]2C[C@H](O)[C@@H](CO)O2)c(=O)n1 [Decitabine] (10 nM) | 95.4 | 103 | 103 | 102 | 98.5 | 93 | 124 | 104 | 96 | 102 | 98.8 | 97.3 | 103 | 90 | 94.6 | 105 | 96.3 | 97.7
5 | Nc1ccccc1NC(=O)c1ccc(CNC(=O)OCc2cccnc2)cc1 [Entinostat] (10 nM) | 104 | 94.2 | 101 | 95.7 | 109 | 96.8 | 94 | 100 | 98.4 | 98.6 | 97.5 | 102 | 103 | 107 | 99.5 | 101 | 102 | 94.6
6 | Nc1nc(F)nc2c1ncn2[C@@H]1O[C@H](CO)[C@@H](O)[C@@H]1O [Fludarabine] (10 nM) | 108 | 101 | 108 | 98.5 | 116 | 101 | 120 | 108 | 105 | 109 | 97 | 109 | 110 | 98.8 | 107 | 107 | 105 | 103
7 | N#Cc1ccc(C(c2ccc(C#N)cc2)n2cncn2)cc1 [Letrozole] (10 nM) | 99.3 | 95.7 | 97.4 | 98.2 | 108 | 95.3 | 126 | 103 | 99.6 | 101 | 97.8 | 97.1 | 103 | 99.9 | 97.6 | 98.2 | 103 | 102
8 | Cc1cnc(NC(=O)Nc2cc(Br)c(C)cc2OC[C@@H]2CNCCO2)cn1 [Rabusertib] (1 nM) | 118 | 98.1 | 104 | 101 | 105 | 94.6 | 115 | 103 | 94.9 | 107 | 90.4 | 104 | 113 | 103 | 106 | 108 | 102 | 109
9 | COc1cc([C@@H]2c3cc4c(cc3[C@@H](O[C@@H]3O[C@@H]5CO[C@@H](c6cccs6)O[C@H]5[C@H](O)[C@H]3O)[C@H]3COC(=O)[C@H]23)OCO4)cc(OC)c1O [Teniposide] (10 nM) | 93.2 | 105 | 96.9 | 103 | 98.8 | 91.9 | 112 | 96.8 | 98.3 | 99.4 | 95.3 | 89.7 | 98 | 100 | 101 | 78.2 | 100 | 101
10 | Oc1ncc(N(CCCl)CCCl)c(O)n1 [Uracil mustard] (10 nM) | 107 | 102 | 105 | 87 | 106 | 97.2 | 80.1 | 103 | 90.3 | 105 | 95.1 | 105 | 103 | 95.2 | 99.7 | 97.7 | 107 | 88.8
11 | CCCCC(=O)OCC(=O)[C@]1(O)Cc2c(O)c3c(c(O)c2[C@@H](O[C@H]2C[C@H](NC(=O)C(F)(F)F)[C@H](O)[C@H](C)O2)C1)C(=O)c1c(OC)cccc1C3=O [Valrubicin] (5 nM) | 105 | 94.6 | 102 | 96.5 | 106 | 91.1 | 60.1 | 97.6 | 93.1 | 97 | 95.5 | 101 | 105 | 95.6 | 102 | 101 | 102 | 103
